Test results from patent US20110027352A1, “COMPOUNDS FOR USE IN THE TREATMENT OF NEUROPATHIC PAIN” (priority 2008, published 2011).
“Also recorded” adds a separate entry of the source.

What was measured:
[1] = test system: mechanical allodynia of the neuropathic (“Cuff”) mice; assay: Sciatic nerve cuff murine model of neuropathic pain, von Frey filament test in neuropathic (Cuff) mice; format: in vivo, C57BL/6J mice; conditions: for Mechanical allodynia of Cuff mice after the first (acute) injection: mice neuropathic for 2 weeks; for Allodynia in neuropathic (Cuff) animals after chronic treatment, recapitulation (FIG. 25): chronic treatment (14-21 days), doses and modes as in examples 7, 9 to 14 and 20 (formoterol 0.5 mg/kg, terbutalin 5 mg/kg); for Effect on neuropathic allodynia acutely after the first injection, summary statement: first injection of the agonist, doses as in examples 7, 9, 11 and 15
Description: (§1) The experiments were carried out on adult male mice. The pharmacological experiments were carried out using C57BL/6J mice (3-to-6 weeks old on their arrival, Charles River, L'Arbresle, France).
All the experiments began with mice that were 6-to-9 weeks old. […] For all the other experiments, the mice were combined at four to five per cage and kept under alternating 12-hour day/night (light at 6 am) with food and water ad libitum.
(§2) The model is obtained by placing a polyethylene cuff around the main branch of the right sciatic nerve of each mouse. Before any surgical procedure, the mice were assigned to the various experimental groups in such a way that the baseline mechanical nociception threshold and the weight are equivalent between the various groups. The surgical procedure was carried out under ketamin-xylazin anesthesia (ketamin: 17 mg/ml, xylazin 2.5 mg/ml, intraperitoneal injection in a proportion of 4 ml/kg) (limited liability company Centravet, Taden, France). The common branch of the sciatic nerve was exposed and a section 2 mm long of a hollow PE-20 polyethylene tube (“Harvard Apparatus”, Les Ulis, France) was placed around said branch (“Cuff” group). […] Control mice were operated on according to the same procedure, but without placing the cuff (“Sham” group). The experimental groups are made up of at least 4 mice for each control (“Sham”) group and at least 5 mice for each neuropathic (“Cuff”) group.
(§3) The mice are placed in transparent Plexiglas (registered trademark) boxes (7 cm×9 cm×7 cm) placed on a raised grid. Before the test, the mice are allowed to become accustomed to this device for 15 minutes. During the test, the von Frey filaments are applied to the plantar surface of each back foot according to ascending forces (from 0.16 g up to a foot withdrawal response, or up to a maximum of 10 g). Each filament is tested 5 times per foot and the threshold is defined by the presence of 3 or more withdrawals observed over the 5 tests. Before the surgery as described above, the animals were pretested in order to establish their baseline nociceptive response. During the chronic treatment experiments and those of repeated injection of antagonists, the tests are carried out in the mornings before the first injection of the day. During the acute agonist injection experiments, the tests are carried out after the first injection according to the time course as presented on the graphs.
The surgery for installing the cuff corresponds to day 0.
(§4) For all the treatments carried out by injection, said injections were given intraperitoneally in a volume of 50 microL per 10 mg of body weight.

[2] = test system: nociceptive sensitivity of the mice of the control (“Sham”) group; assay: von Frey filament test in control (Sham) mice operated without cuff; format: in vivo, C57BL/6J mice; conditions: for Sensitivity of control (Sham) animals under chronic treatment, recapitulation (FIG. 26): chronic treatment (14-21 days), doses and modes as in examples 2, 7, 9 to 14 and 20 (formoterol 0.5 mg/kg, terbutalin 5 mg/kg); for Nociceptive sensitivity of control (Sham) mice under chronic treatment: repeated injections, doses and modes as for the Cuff mice of the same example; for Sensitivity of control (Sham) animals, dose-response recapitulation (FIG. 21): terbutalin 0.125, 0.25, 0.5 or 5 mg/kg, nortriptylin 5 mg/kg, twice a day, 3 weeks
Description: as §1, §2, §3, §4

[3] = test system: mechanical allodynia of the neuropathic (“Cuff”) mice; conditions: as previously published (Benbouzid et al. 2008); cited from earlier work
[4] = test system: mechanical allodynia of the neuropathic (“Cuff”) mice; assay: Cotreatment with adrenoreceptor antagonists in Cuff mice relieved by chronic nortriptylin or beta-agonist treatment, von Frey test; format: in vivo, C57BL/6J mice; conditions: for Effect of coadministered beta2-adrenoreceptor antagonist ICI 118,551 on the allodynia of agonist-treated Cuff mice: ICI 118,551 2 mg/kg intraperitoneal, after 3 weeks of agonist treatment (doses as in chronic treatment; terbutalin 0.5 mg/kg), 3 to 6 days of cotreatment; for Effect of ICI 118,551 on the therapeutic effect of chronic agonist treatment on neuropathic allodynia, summary statement: chronic treatment with the agonist plus beta2-adrenoreceptor antagonist ICI 118,551
Description: as §2
For the tests, in the examples which follow, the pressure is exerted on the foot of the mice by means of von Frey filaments (Bioseb, Chaville, France) (Benbouzid, M. et al. Biological Psychiatry 63:633-636 (2008) (10) and Benbouzid, M. et al. European Journal of Pain 12:591-599 (2008) (11)). The mice are placed in transparent Plexiglas (registered trademark) boxes (7 cm×9 cm×7 cm) placed on a raised grid. Before the test, the mice are allowed to become accustomed to this device for 15 minutes. During the test, the von Frey filaments are applied to the plantar surface of each back foot according to ascending forces (from 0.16 g up to a foot withdrawal response, or up to a maximum of 10 g). Each filament is tested 5 times per foot and the threshold is defined by the presence of 3 or more withdrawals observed over the 5 tests. Before the surgery as described above, the animals were pretested in order to establish their baseline nociceptive response. During the chronic treatment experiments and those of repeated injection of antagonists, the tests are carried out in the mornings before the first injection of the day. During the acute agonist injection experiments, the tests are carried out after the first injection according to the time course as presented on the graphs.
The procedure for intrathecal (i.t.) injection of the beta2-adrenoreceptor antagonist ICI 118,551 (3 μg in 10 μl) is carried out under halothane gas anesthesia according to the protocol described by Inoue et al. (Nature Medicine 2004, 10:712-718 (12)). These i.t. injections are carried out just before the intraperitoneal injection of salbutamol (2 mg/kg, i.p.). A 27-gauge injection needle connected to a 50 μl Hamilton syringe is inserted, between the L5 and L6 vertebrae, into the subarachnoid space. The correct placement of the needle is verified by the presence of a reflex movement of the tail of the mouse. The mice are pretested before this cotreatment procedure, and then cotreated twice (a morning and the corresponding evening) before being retested the following morning for their mechanical nociceptive sensitivity.

[5] = 5 mg/kg, injection twice a day (morning and evening), chronic
[6] = 0.5 mg/kg, injection twice a day, chronic

Row | SMILES | Mechanical allodynia in neuropathic (Cuff) mice after chronic treatment [1, 5] | Sensitivity of control (Sham) animals under chronic treatment, recapitulation (FIG. 26) [2] | Nociceptive sensitivity of control (Sham) mice under chronic treatment [2] | Sensitivity of control (Sham) animals, dose-response recapitulation (FIG. 21) [2] | Sensitivity of the neuropathic mouse model to chronic treatment with a tricyclic antidepressant [3] | Allodynia in neuropathic (Cuff) animals after chronic treatment, recapitulation (FIG. 25) [1] | Effect on neuropathic allodynia acutely after the first injection, summary statement [1] | Effect of coadministered beta2-adrenoreceptor antagonist ICI 118,551 on the allodynia of agonist-treated Cuff mice [4] | Effect of ICI 118,551 on the therapeutic effect of chronic agonist treatment on neuropathic allodynia, summary statement [4] | other results
1 | CNCCC=C1c2ccccc2CCc2ccccc21 [nortriptylin] | ineffective initially, but subsequently causes the allodynia to completely disappear | does not impair the sensitivity of control animals | not affected | does not impair the sensitivity of control animals | sensitive to chronic treatment | – | – | – | – | –
2 | CN(C)CCC=C1c2ccccc2CCc2ccccc21 [amitriptylin] | – | – | – | – | sensitive to chronic treatment | – | – | – | – | –
3 | CC(C)(C)NCC(O)c1cc(O)cc(O)c1 (stereo not shown) [terbutalin] | completely suppresses the mechanical allodynia | do not affect the control animals; also recorded: does not aspecifically affect the sensitivity of the control animals | not affected | do not affect | – | relieve this allodynia; also recorded: causes the neuropathic pain, for example the neuropathic allodynia, to completely disappear | not observed acutely after the first injection | causes the allodynia to reappear | blocks the therapeutic effect | Mechanical allodynia of the right (neuropathic) foot after chronic treatment ([1]; 0.125 mg/kg, injection twice a day, chronic): completely suppress the mechanical allodynia; Mechanical allodynia of the right (neuropathic) foot after chronic treatment ([1]; 0.25 mg/kg, injection twice a day, chronic): completely suppress the mechanical allodynia; Mechanical allodynia in neuropathic (Cuff) mice after chronic treatment [1, 6]: completely suppresses the mechanical allodynia; Response of the non-neuropathic left foot (foot without surgery) of Cuff mice [1, 6]: without aspecifically affecting the response; Mechanical allodynia of Cuff mice after the first (acute) injection ([1]; 5 mg/kg, intraperitoneal): has no effect on the mechanical allodynia; Mechanical allodynia in neuropathic (Cuff) mice after chronic application of a gel to the skin ([1]; 0.1 ml of gel twice a day, 2.5 mg/ml terbutalin hemisulfate in 5% hydroxyethylcellulose gel, from 8 days after surgery): relieves the mechanical allodynia; also recorded: relieves neuropathic allodynia; Mechanical sensitivity of the non-neuropathic left foot of Cuff mice (FIG. 21) ([1]; 0.125, 0.25, 0.5 or 5 mg/kg twice a day, chronic (3 weeks)): without affecting the mechanical sensitivity; Allodynia of the neuropathic right foot, dose-response recapitulation (FIG. 21) ([1]; 0.125, 0.25, 0.5 or 5 mg/kg twice a day, chronic (3 weeks), averaged over third week): suppresses the allodynia; Mechanical allodynia in neuropathic (Cuff) mice with subcutaneous implant (continuous delivery) ([1]; silicone tube implant containing 10 mg terbutalin hemisulfate, inserted 14 days after surgery): relieves the mechanical allodynia; also recorded: relieves neuropathic allodynia
4 | OCc1cc(C(O)CNCCCCCCOCCCCc2ccccc2)ccc1O (stereo not shown) [salmeterol] | – | do not affect the control animals; also recorded: does not aspecifically affect the sensitivity of the control animals | not affected | – | – | relieve this allodynia; also recorded: causes the neuropathic pain, for example the neuropathic allodynia, to completely disappear | not observed acutely after the first injection | causes the allodynia to reappear | blocks the therapeutic effect | Mechanical allodynia in neuropathic (Cuff) mice after chronic treatment ([1]; 1 mg/kg, injection twice a day, chronic): completely suppresses the mechanical allodynia; Mechanical allodynia of Cuff mice after the first (acute) injection ([1]; 1 mg/kg, intraperitoneal): has no effect on the mechanical allodynia; Mechanical allodynia in neuropathic (Cuff) mice after chronic treatment by inhalation ([1]; salmeterol xinafoate inhaler (Serevent), twice a day, 50 μg per session for 2 weeks, then inhaler pressed four times per session for 9 days): relieves the mechanical allodynia; also recorded: relieves neuropathic allodynia
5 | CC(C)(C)NCC(O)c1cc(Cl)c(N)c(Cl)c1 (stereo not shown) [clenbuterol] | – | do not affect the control animals; also recorded: does not aspecifically affect the sensitivity of the control animals | not affected | – | – | relieve this allodynia; also recorded: causes the neuropathic pain, for example the neuropathic allodynia, to completely disappear | not observed acutely after the first injection | causes the allodynia to reappear | blocks the therapeutic effect | Mechanical allodynia of Cuff mice after the first (acute) injection ([1]; 0.3 mg/kg, intraperitoneal): has no effect on the mechanical allodynia; Mechanical allodynia in neuropathic (Cuff) mice after chronic treatment ([1]; 0.3 mg/kg, intraperitoneal, twice a day, chronic): completely suppresses the mechanical allodynia; Control (Sham) mice after the first administration ([2]; clenbuterol 0.3 mg/kg, intraperitoneal, first injection): unaffected
6 | CC(Cc1ccc(O)cc1)NCC(O)c1cc(O)cc(O)c1 (stereo not shown) [fenoterol] | – | do not affect the control animals; also recorded: does not aspecifically affect the sensitivity of the control animals | not affected | – | – | relieve this allodynia; also recorded: causes the neuropathic pain, for example the neuropathic allodynia, to completely disappear | not observed acutely after the first injection | causes the allodynia to reappear | blocks the therapeutic effect | Mechanical allodynia of Cuff mice after the first (acute) injection ([1]; 0.7 mg/kg, intraperitoneal): has no effect on the mechanical allodynia; Mechanical allodynia in neuropathic (Cuff) mice after chronic treatment ([1]; 0.7 mg/kg, twice a day, chronic): completely suppresses the mechanical allodynia
